Assay results: the NIST ThermoML archive (doi:10.1016/j.tca.2013.03.025)
± gives the expanded uncertainty stated by the source.

Experiment: xn = mol fraction of the nth substance listed
Details: 101 kPa, Liquid; for viscosity: Concentric cylinders viscometry; for mass density: Vibrating tube method

## CCCCOC(=O)C(C)O (stereo not given) [butyl 2-hydroxypropanoate] + OCCCO
288.15 K, x1 = 0.0999
  viscosity: 55.22 ± 0.56 mPa·s
  mass density: 1046.52 ± 0.36 kg/m3
288.15 K, x1 = 0.2
  viscosity: 41.92 ± 0.46 mPa·s
  mass density: 1037.84 ± 0.47 kg/m3
288.15 K, x1 = 0.3001
  viscosity: 31.27 ± 0.37 mPa·s
  mass density: 1029.39 ± 0.59 kg/m3
288.15 K, x1 = 0.4
  viscosity: 22.91 ± 0.28 mPa·s
  mass density: 1022.24 ± 0.72 kg/m3
288.15 K, x1 = 0.4999
  viscosity: 16.95 ± 0.22 mPa·s
  mass density: 1015.45 ± 0.87 kg/m3
288.15 K, x1 = 0.5999
  viscosity: 12.66 ± 0.18 mPa·s
  mass density: 1009.2 ± 1 kg/m3
288.15 K, x1 = 0.6996
  viscosity: 9.596 ± 0.14 mPa·s
  mass density: 1003.51 ± 1.2 kg/m3
288.15 K, x1 = 0.8001
  viscosity: 7.373 ± 0.12 mPa·s
  mass density: 997.914 ± 1.4 kg/m3
288.15 K, x1 = 0.9
  viscosity: 5.629 ± 0.093 mPa·s
  mass density: 992.76 ± 1.6 kg/m3
288.15 K, x1 = 1
  viscosity: 4.628 ± 0.081 mPa·s
  mass density: 987.269 ± 1.8 kg/m3
293.15 K, x1 = 0.0999
  viscosity: 42.99 ± 0.45 mPa·s
  mass density: 1043.16 ± 0.36 kg/m3
293.15 K, x1 = 0.2
  viscosity: 32.73 ± 0.36 mPa·s
  mass density: 1034.24 ± 0.46 kg/m3
293.15 K, x1 = 0.3001
  viscosity: 24.47 ± 0.29 mPa·s
  mass density: 1025.58 ± 0.58 kg/m3
293.15 K, x1 = 0.4
  viscosity: 18.13 ± 0.23 mPa·s
  mass density: 1018.23 ± 0.71 kg/m3
293.15 K, x1 = 0.4999
  viscosity: 13.54 ± 0.18 mPa·s
  mass density: 1011.25 ± 0.86 kg/m3
293.15 K, x1 = 0.5999
  viscosity: 10.21 ± 0.14 mPa·s
  mass density: 1004.84 ± 1 kg/m3
293.15 K, x1 = 0.6996
  viscosity: 7.805 ± 0.12 mPa·s
  mass density: 999.008 ± 1.2 kg/m3
293.15 K, x1 = 0.8001
  viscosity: 6.064 ± 0.095 mPa·s
  mass density: 993.26 ± 1.4 kg/m3
293.15 K, x1 = 0.9
  viscosity: 4.686 ± 0.077 mPa·s
  mass density: 987.976 ± 1.6 kg/m3
293.15 K, x1 = 1
  viscosity: 3.88 ± 0.068 mPa·s
  mass density: 982.366 ± 1.8 kg/m3
298.15 K, x1 = 0.0999
  viscosity: 33.94 ± 0.35 mPa·s
  mass density: 1039.79 ± 0.36 kg/m3
298.15 K, x1 = 0.2
  viscosity: 25.91 ± 0.29 mPa·s
  mass density: 1030.62 ± 0.46 kg/m3
298.15 K, x1 = 0.3001
  viscosity: 19.59 ± 0.23 mPa·s
  mass density: 1021.73 ± 0.57 kg/m3
298.15 K, x1 = 0.4
  viscosity: 14.51 ± 0.18 mPa·s
  mass density: 1014.19 ± 0.71 kg/m3
298.15 K, x1 = 0.4999
  viscosity: 10.96 ± 0.14 mPa·s
  mass density: 1007.03 ± 0.85 kg/m3
298.15 K, x1 = 0.5999
  viscosity: 8.355 ± 0.12 mPa·s
  mass density: 1000.47 ± 1 kg/m3
298.15 K, x1 = 0.6996
  viscosity: 6.444 ± 0.096 mPa·s
  mass density: 994.488 ± 1.2 kg/m3
298.15 K, x1 = 0.8001
  viscosity: 5.056 ± 0.079 mPa·s
  mass density: 988.587 ± 1.4 kg/m3
298.15 K, x1 = 0.9
  viscosity: 3.957 ± 0.066 mPa·s
  mass density: 983.173 ± 1.6 kg/m3
298.15 K, x1 = 1
  viscosity: 3.307 ± 0.058 mPa·s
  mass density: 977.448 ± 1.8 kg/m3
303.15 K, x1 = 0.0999
  viscosity: 27.14 ± 0.28 mPa·s
  mass density: 1036.41 ± 0.35 kg/m3
303.15 K, x1 = 0.2
  viscosity: 20.8 ± 0.23 mPa·s
  mass density: 1026.99 ± 0.45 kg/m3
303.15 K, x1 = 0.3001
  viscosity: 15.82 ± 0.19 mPa·s
  mass density: 1017.87 ± 0.57 kg/m3
303.15 K, x1 = 0.4
  viscosity: 11.86 ± 0.15 mPa·s
  mass density: 1010.14 ± 0.7 kg/m3
303.15 K, x1 = 0.4999
  viscosity: 8.984 ± 0.12 mPa·s
  mass density: 1002.79 ± 0.84 kg/m3
303.15 K, x1 = 0.5999
  viscosity: 6.919 ± 0.097 mPa·s
  mass density: 996.07 ± 1 kg/m3
303.15 K, x1 = 0.6996
  viscosity: 5.405 ± 0.08 mPa·s
  mass density: 989.946 ± 1.2 kg/m3
303.15 K, x1 = 0.8001
  viscosity: 4.286 ± 0.067 mPa·s
  mass density: 983.896 ± 1.4 kg/m3
303.15 K, x1 = 0.9
  viscosity: 3.386 ± 0.056 mPa·s
  mass density: 978.359 ± 1.6 kg/m3
303.15 K, x1 = 1
  viscosity: 2.86 ± 0.05 mPa·s
  mass density: 972.515 ± 1.8 kg/m3
308.15 K, x1 = 0.0999
  viscosity: 21.95 ± 0.23 mPa·s
  mass density: 1033 ± 0.35 kg/m3
308.15 K, x1 = 0.2
  viscosity: 16.89 ± 0.19 mPa·s
  mass density: 1023.33 ± 0.45 kg/m3
308.15 K, x1 = 0.3001
  viscosity: 12.93 ± 0.15 mPa·s
  mass density: 1013.99 ± 0.56 kg/m3
308.15 K, x1 = 0.4
  viscosity: 9.744 ± 0.12 mPa·s
  mass density: 1006.06 ± 0.69 kg/m3
308.15 K, x1 = 0.4999
  viscosity: 7.491 ± 0.099 mPa·s
  mass density: 998.523 ± 0.84 kg/m3
308.15 K, x1 = 0.5999
  viscosity: 5.805 ± 0.082 mPa·s
  mass density: 991.652 ± 1 kg/m3
308.15 K, x1 = 0.6996
  viscosity: 4.581 ± 0.068 mPa·s
  mass density: 985.382 ± 1.2 kg/m3
308.15 K, x1 = 0.8001
  viscosity: 3.667 ± 0.058 mPa·s
  mass density: 979.183 ± 1.4 kg/m3
308.15 K, x1 = 0.9
  viscosity: 2.929 ± 0.049 mPa·s
  mass density: 973.522 ± 1.6 kg/m3
308.15 K, x1 = 1
  viscosity: 2.481 ± 0.043 mPa·s
  mass density: 967.567 ± 1.8 kg/m3
313.15 K, x1 = 0.0999
  viscosity: 17.95 ± 0.19 mPa·s
  mass density: 1029.57 ± 0.35 kg/m3
313.15 K, x1 = 0.2
  viscosity: 13.87 ± 0.15 mPa·s
  mass density: 1019.65 ± 0.45 kg/m3
313.15 K, x1 = 0.3001
  viscosity: 10.69 ± 0.13 mPa·s
  mass density: 1010.09 ± 0.56 kg/m3
313.15 K, x1 = 0.4
  viscosity: 8.124 ± 0.1 mPa·s
  mass density: 1001.96 ± 0.69 kg/m3
313.15 K, x1 = 0.4999
  viscosity: 6.299 ± 0.084 mPa·s
  mass density: 994.239 ± 0.83 kg/m3
313.15 K, x1 = 0.5999
  viscosity: 4.926 ± 0.069 mPa·s
  mass density: 987.21 ± 0.99 kg/m3
313.15 K, x1 = 0.6996
  viscosity: 3.922 ± 0.058 mPa·s
  mass density: 980.794 ± 1.2 kg/m3
313.15 K, x1 = 0.8001
  viscosity: 3.171 ± 0.05 mPa·s
  mass density: 974.453 ± 1.4 kg/m3
313.15 K, x1 = 0.9
  viscosity: 2.558 ± 0.043 mPa·s
  mass density: 968.668 ± 1.6 kg/m3
313.15 K, x1 = 1
  viscosity: 2.181 ± 0.038 mPa·s
  mass density: 962.603 ± 1.8 kg/m3
318.15 K, x1 = 0.0999
  viscosity: 14.83 ± 0.16 mPa·s
  mass density: 1026.13 ± 0.34 kg/m3
318.15 K, x1 = 0.2
  viscosity: 11.5 ± 0.13 mPa·s
  mass density: 1015.95 ± 0.44 kg/m3
318.15 K, x1 = 0.3001
  viscosity: 8.916 ± 0.11 mPa·s
  mass density: 1006.16 ± 0.55 kg/m3
318.15 K, x1 = 0.4
  viscosity: 6.84 ± 0.086 mPa·s
  mass density: 997.828 ± 0.68 kg/m3
318.15 K, x1 = 0.4999
  viscosity: 5.351 ± 0.071 mPa·s
  mass density: 989.925 ± 0.82 kg/m3
318.15 K, x1 = 0.5999
  viscosity: 4.221 ± 0.06 mPa·s
  mass density: 982.743 ± 0.98 kg/m3
318.15 K, x1 = 0.6996
  viscosity: 3.391 ± 0.051 mPa·s
  mass density: 976.184 ± 1.2 kg/m3
318.15 K, x1 = 0.8001
  viscosity: 2.768 ± 0.044 mPa·s
  mass density: 969.697 ± 1.3 kg/m3
318.15 K, x1 = 0.9
  viscosity: 2.253 ± 0.038 mPa·s
  mass density: 963.791 ± 1.5 kg/m3
318.15 K, x1 = 1
  viscosity: 1.935 ± 0.034 mPa·s
  mass density: 957.624 ± 1.7 kg/m3
323.15 K, x1 = 0.0999
  viscosity: 12.36 ± 0.13 mPa·s
  mass density: 1022.65 ± 0.34 kg/m3
323.15 K, x1 = 0.2
  viscosity: 9.627 ± 0.11 mPa·s
  mass density: 1012.21 ± 0.44 kg/m3
323.15 K, x1 = 0.3001
  viscosity: 7.519 ± 0.089 mPa·s
  mass density: 1002.2 ± 0.55 kg/m3
323.15 K, x1 = 0.4
  viscosity: 5.813 ± 0.073 mPa·s
  mass density: 993.673 ± 0.68 kg/m3
323.15 K, x1 = 0.4999
  viscosity: 4.586 ± 0.061 mPa·s
  mass density: 985.589 ± 0.82 kg/m3
323.15 K, x1 = 0.5999
  viscosity: 3.65 ± 0.052 mPa·s
  mass density: 978.248 ± 0.98 kg/m3
323.15 K, x1 = 0.6996
  viscosity: 2.958 ± 0.044 mPa·s
  mass density: 971.548 ± 1.1 kg/m3
323.15 K, x1 = 0.8001
  viscosity: 2.435 ± 0.039 mPa·s
  mass density: 964.924 ± 1.3 kg/m3
323.15 K, x1 = 0.9
  viscosity: 2.002 ± 0.034 mPa·s
  mass density: 958.899 ± 1.5 kg/m3
323.15 K, x1 = 1
  viscosity: 1.728 ± 0.031 mPa·s
  mass density: 952.631 ± 1.7 kg/m3
